What was measured:
[1] = AUC was determined after peroral administration at 10 mg/kg; assay type: ADME, organism-based; design: dose 10 mg/kg, route oral; conditions: rat, plasma, po
[2] = Clearance was determined after intravenous administration at 2 mg/kg; assay type: ADME, organism-based; design: dose 2 mg/kg, route intravenous; conditions: rat, in vivo
[3] = biological target: T1, Integrin alpha-IIb/beta-3 (Homo sapiens, UniProt P05106+P08514); experiment: Inhibition of human Biotinylated Fg binding to immobilized Alpha II beta-3; assay type: protein-complex assay
[4] = Oral bioavailability (dose in 5% dextrose in water at pH 2); assay type: ADME, organism-based; conditions: rat, in vivo
[5] = Half life was determined after peroral administration at 10 mg/kg; assay type: ADME, organism-based; design: dose 10 mg/kg, route oral; conditions: rat, in vivo, po
[6] = Inhibition of human Biotinylated Fg binding to immobilized Alpha II biotinylated Fg beta-5
[7] = biological target: T1, Integrin alpha-IIb/beta-3; experiment: Inhibition of human Biotinylated Fg binding to immobilized Alpha IIb beta-3 (N=1); assay type: protein-complex assay
Integrin alpha-V/beta-3 = Integrin alpha-V/beta-3 (Homo sapiens, UniProt P05106+P06756); experiment: Inhibition of human vitronectin binding to immobilized Alpha v beta-3; assay type: protein-complex assay
Integrin alpha-V/beta-3, sequence (P05106 27-788 limits assumed): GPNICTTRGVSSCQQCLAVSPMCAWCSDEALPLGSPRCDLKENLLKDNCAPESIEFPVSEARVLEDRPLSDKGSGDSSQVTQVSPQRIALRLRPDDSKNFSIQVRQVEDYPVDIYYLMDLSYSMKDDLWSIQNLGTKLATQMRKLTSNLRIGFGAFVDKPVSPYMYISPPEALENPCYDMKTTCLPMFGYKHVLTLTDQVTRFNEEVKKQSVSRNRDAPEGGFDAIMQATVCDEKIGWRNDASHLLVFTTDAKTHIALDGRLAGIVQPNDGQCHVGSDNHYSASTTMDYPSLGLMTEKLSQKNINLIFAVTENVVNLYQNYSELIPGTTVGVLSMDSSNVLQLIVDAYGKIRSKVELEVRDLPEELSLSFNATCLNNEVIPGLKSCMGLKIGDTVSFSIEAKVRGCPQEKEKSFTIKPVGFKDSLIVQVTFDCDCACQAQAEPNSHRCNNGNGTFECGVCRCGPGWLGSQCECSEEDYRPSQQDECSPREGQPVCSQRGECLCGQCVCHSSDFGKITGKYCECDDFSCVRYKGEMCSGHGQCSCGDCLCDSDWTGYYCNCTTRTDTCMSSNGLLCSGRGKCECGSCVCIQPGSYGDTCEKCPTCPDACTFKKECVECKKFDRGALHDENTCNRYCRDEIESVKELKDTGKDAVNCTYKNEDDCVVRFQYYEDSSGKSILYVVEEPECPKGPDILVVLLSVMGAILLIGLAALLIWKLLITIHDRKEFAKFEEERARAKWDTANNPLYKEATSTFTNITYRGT
Integrin alpha-V/beta-3, sequence (P06756 31-889 limits assumed): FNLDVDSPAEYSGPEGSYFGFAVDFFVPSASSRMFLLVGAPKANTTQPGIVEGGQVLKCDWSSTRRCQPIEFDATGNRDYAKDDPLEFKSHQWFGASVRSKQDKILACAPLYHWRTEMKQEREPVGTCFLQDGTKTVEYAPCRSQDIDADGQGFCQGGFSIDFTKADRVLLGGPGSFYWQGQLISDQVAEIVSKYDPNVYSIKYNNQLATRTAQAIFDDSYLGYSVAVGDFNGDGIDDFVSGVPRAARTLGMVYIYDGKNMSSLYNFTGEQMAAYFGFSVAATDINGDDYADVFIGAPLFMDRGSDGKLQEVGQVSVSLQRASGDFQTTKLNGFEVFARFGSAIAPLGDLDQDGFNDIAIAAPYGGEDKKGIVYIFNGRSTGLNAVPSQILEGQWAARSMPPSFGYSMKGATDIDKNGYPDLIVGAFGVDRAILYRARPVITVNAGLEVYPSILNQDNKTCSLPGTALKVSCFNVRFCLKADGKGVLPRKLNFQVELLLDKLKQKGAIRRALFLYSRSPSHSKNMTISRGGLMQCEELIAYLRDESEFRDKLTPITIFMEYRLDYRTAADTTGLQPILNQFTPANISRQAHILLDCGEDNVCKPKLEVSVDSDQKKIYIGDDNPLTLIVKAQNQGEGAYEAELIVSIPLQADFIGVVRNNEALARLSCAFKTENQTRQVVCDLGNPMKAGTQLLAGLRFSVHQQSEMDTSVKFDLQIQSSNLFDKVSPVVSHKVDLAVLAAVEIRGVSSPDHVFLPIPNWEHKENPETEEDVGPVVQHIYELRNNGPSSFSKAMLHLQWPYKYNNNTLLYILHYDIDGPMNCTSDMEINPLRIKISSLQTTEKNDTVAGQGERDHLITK
Integrin alpha-V/beta-3, sequence (P06756 891-1048 limits assumed): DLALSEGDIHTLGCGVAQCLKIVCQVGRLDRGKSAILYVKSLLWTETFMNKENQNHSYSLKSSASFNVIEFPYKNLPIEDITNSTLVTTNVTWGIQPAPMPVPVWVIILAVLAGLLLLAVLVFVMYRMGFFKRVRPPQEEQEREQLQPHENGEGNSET

T1 sequence (P05106 27-788 limits assumed): as the sequence (P05106 27-788 limits assumed) above
T1 sequence (P08514 32-887 limits assumed): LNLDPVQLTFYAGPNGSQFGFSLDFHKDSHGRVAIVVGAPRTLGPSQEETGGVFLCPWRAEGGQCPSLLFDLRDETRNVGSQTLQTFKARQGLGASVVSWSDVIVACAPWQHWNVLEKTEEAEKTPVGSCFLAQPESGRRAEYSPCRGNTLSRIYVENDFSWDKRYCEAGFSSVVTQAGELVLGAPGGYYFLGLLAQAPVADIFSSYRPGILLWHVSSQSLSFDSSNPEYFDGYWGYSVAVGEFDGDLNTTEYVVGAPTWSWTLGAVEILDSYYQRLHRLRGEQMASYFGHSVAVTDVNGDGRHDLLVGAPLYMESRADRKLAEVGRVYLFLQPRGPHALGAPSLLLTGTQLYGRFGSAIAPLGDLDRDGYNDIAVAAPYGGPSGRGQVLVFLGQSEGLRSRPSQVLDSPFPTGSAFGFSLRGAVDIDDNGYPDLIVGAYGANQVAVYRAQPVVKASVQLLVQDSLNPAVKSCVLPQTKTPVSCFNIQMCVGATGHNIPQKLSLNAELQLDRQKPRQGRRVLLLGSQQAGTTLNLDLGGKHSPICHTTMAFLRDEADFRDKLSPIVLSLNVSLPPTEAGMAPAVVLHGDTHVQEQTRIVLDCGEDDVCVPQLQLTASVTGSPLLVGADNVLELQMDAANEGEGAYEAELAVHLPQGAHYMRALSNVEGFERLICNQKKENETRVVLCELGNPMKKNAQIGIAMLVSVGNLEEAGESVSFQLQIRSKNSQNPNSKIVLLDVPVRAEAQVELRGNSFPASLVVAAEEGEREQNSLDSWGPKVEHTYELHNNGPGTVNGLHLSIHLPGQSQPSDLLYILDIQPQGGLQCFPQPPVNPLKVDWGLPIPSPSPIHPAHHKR
T1 sequence (P08514 891-1039 limits assumed): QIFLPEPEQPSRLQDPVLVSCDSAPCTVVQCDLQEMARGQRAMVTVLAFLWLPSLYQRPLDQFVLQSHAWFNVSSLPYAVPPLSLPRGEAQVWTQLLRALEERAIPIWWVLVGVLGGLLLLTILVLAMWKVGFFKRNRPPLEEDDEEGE

| Compound | AUC [1] | CI [2] | IC50 [3] | bioavailability [4] | half-life [5] | IC50 [6] | IC50 [7] | IC50 (Integrin alpha-V/beta-3) |
| --- | --- | --- | --- | --- | --- | --- | --- | --- |
| O=C(O)CC(CCC1CCN(C(=O)CCc2ccc3c(n2)NCCC3)CC1)c1ccc2c(c1)OCO2 (stereo unspecified) | 304 µM·h | 0.09 mg/kg/µM/h | 4360 nM | 88% | 3 h |  |  |  |
| O=C(O)CC(c1ccc2c(c1)OCO2)C1CCN(C(=O)Cc2ccc3c(n2)NCCC3)CC1 (stereo unspecified) |  |  |  |  |  | 775 nM | > 10000 nM |  |
| COc1ncc(C(CC(=O)O)CC2CCN(C(=O)CCc3ccc4c(n3)NCCC4)CC2)c(OC)n1 (stereo unspecified) | 0.1 µM·h | 1 mg/kg/µM/h |  | 1% |  | 4.6 nM |  | 1.5 nM |
| O=C(O)CC(CC1CCN(C(=O)CCc2ccc3c(n2)NCCC3)CC1)c1cccc(F)c1 (stereo unspecified) | 2.7 µM·h | 0.5 mg/kg/µM/h | > 10000 nM | 14% | 1.7 h | 2.8 nM |  |  |
| O=C(O)CC(CC1CCN(C(=O)CCc2ccc3c(n2)NCCC3)CC1)c1ccc2ccccc2c1 (stereo unspecified) | 286 µM·h | 0.02 mg/kg/µM/h | > 10000 nM | 47% | 5.65 h | 24.5 nM |  |  |
| Cc1ncc(C(CC(=O)O)CC2CCN(C(=O)CCc3ccc4c(n3)NCCC4)CC2)cn1 (stereo unspecified) | < 0.1 µM·h | 10.4 mg/kg/µM/h |  | 4% | 2.6 h |  |  |  |
| O=C(O)CC(CC1CCN(C(=O)CCCc2ccc3c(n2)NCCC3)CC1)c1ccc2c(c1)OCO2 (stereo unspecified) |  |  | 4260 nM |  |  | 220 nM |  | 20.6 nM |
| N/C(=N\Cc1ccncc1)Nc1cccc(C(=O)N2CCC(C(=O)NC(CC(=O)O)c3ccc4c(c3)OCO4)CC2)c1 (stereo unspecified) |  |  | 56.4 nM |  |  |  |  | 25.3 nM |
| O=C(O)CC(CCC1CCN(C(=O)c2cccc(NC3=NCC(O)CN3)c2)CC1)c1ccc2c(c1)OCO2 (stereo unspecified) | 21.2 µM·h | 0.04 mg/kg/µM/h | 1580 nM | 2.6% | 5.4 h |  |  | 1.7 nM |
| O=C(O)CC(NC(=O)C1CCN(C(=O)c2cccc(NC3=CCCCN3)c2)CC1)c1ccc2c(c1)OCO2 (stereo unspecified) |  |  | 209 nM |  |  |  |  | 10.4 nM |
| O=C(O)CC(CC1CCN(C(=O)CCc2ccc3c(n2)NCCC3)CC1)c1cccnc1 (stereo unspecified) |  | 1.1 mg/kg/µM/h |  | 0% |  | 1.7 nM |  |  |
| O=C(O)CC(CCC1CCN(C(=O)CCCNc2ccccn2)CC1)c1ccc2c(c1)OCO2 (stereo unspecified) | 142 µM·h | 0.2 mg/kg/µM/h | 10900 nM | 96% | 6.6 h |  |  | 233 nM |
| O=C(O)CC(c1ccc2c(c1)OCO2)C1CCN(C(=O)CCc2ccc3c(n2)NCCC3)CC1 (stereo unspecified) |  |  | 6190 nM |  |  | 95.7 nM |  | 28.1 nM |
| O=C(O)CC(CCC1CCN(C(=O)Cc2ccc3c(n2)NCCC3)CC1)c1ccc2c(c1)OCO2 (stereo unspecified) |  |  | > 10000 nM |  |  | 405 nM |  | 75 nM |
| O=C(O)CC(NC(=O)C1CCN(C(=O)CCc2ccc3c(n2)NCCC3)CC1)c1cnc2ccccc2c1 (stereo unspecified) |  |  | 2850 nM |  |  |  |  | 2.6 nM |
| O=C(O)CC(c1ccc2c(c1)OCO2)C1CCN(C(=O)CCCc2ccc3c(n2)NCCC3)CC1 (stereo unspecified) |  |  |  |  |  | 33.5 nM |  |  |
| O=C(O)CC(CC1CCN(C(=O)CCc2ccc3c(n2)NCCC3)CC1)c1ccc2c(c1)OCO2 (stereo unspecified) | 97 µM·h | 0.1 mg/kg/µM/h |  | 31% | 2.1 h | 2.3 nM |  |  |
| O=C(O)CC(NC(=O)C1CCN(C(=O)c2cccc(NC3=CCC(O)CN3)c2)CC1)c1cnc2ccccc2c1 (stereo unspecified) |  |  | 177 nM |  |  |  |  | 5.5 nM |
| O=C(O)C[C@H](NC(=O)[C@@H]1CCCN(C(=O)CCC2CCNCC2)C1)c1cccnc1 [ELAROFIBAN] |  |  | 0.15 nM |  |  |  |  | > 50000 nM |
| O=C(O)CC(NC(=O)C1CCN(C(=O)CCCNC2=NCCN2)CC1)c1cnc2ccccc2c1 (stereo unspecified) |  |  | 79.3 nM |  |  |  |  | 2.8 nM |
| O=C(O)CC(NC(=O)C1CCN(C(=O)CCc2ccc3c(n2)NCCC3)CC1)c1ccc2c(c1)OCO2 (stereo unspecified) | 79 µM·h | 0.09 mg/kg/µM/h | 15700 nM | 2.4% | 6.7 h |  |  | 21.7 nM |

Source: ChEMBL document CHEMBL1137913, “Piperidine-containing beta-arylpropionic acids as potent antagonists of alphavbeta3/alphavbeta5 integrins” (Bioorg Med Chem Lett, 2004)
